The values below are quoted from earlier work in patent EP2871189A1, “High-affinity monoclonal anti-strep-tag antibody” (INSTITUT PASTEUR, priority 2013, dated 2015).

In this series the target is Strep-Tactin. The settings on record: individual binding site (monovalent interaction) on Strep-Tactin; Schmidt TG et al, J.Mol. Biol. 1996; read-out: dissociation constant.

“Strep-tag II peptide: peptide tag of minimal sequence WSHPQFEK (SEQ ID NO:9) that binds streptavidin / Strep-Tactin”: the Kd was ~1000 nM.
